# Assay results reported in ChEMBL document CHEMBL4699645 (2020).
# Where a SMILES comes first, the peptide text is derived from it. Bridges are numbered along the chain shown (N, C = ends).
# Key:
# [1] = biological target: T1, Neuronal acetylcholine receptor; alpha3/beta2 (Rattus norvegicus) (UniProt P04757+P12390); experiment: Antagonist activity at rat alpha3beta2 nAChR expressed in Xenopus laevis oocytes assessed as inhibition of Ach-induced response by measuring recovery of ACh-induced response time at 10 nM with -70 mV holding potential measured after 5 mins voltage-clamp assay; assay type: cell-based; details: Oocyte
# Hi-5 = experiment: Displacement of [125I]-alpha-bungarotoxin from Aplysia californica C-terminal His6-tagged N-terminal gp67 signal peptide-tagged acetylcholine receptor binding protein expressed in Hi5 insect cells preincubated for 3 hrs followed by [125I]-alpha-bungarotoxin measured after 5 mins by radioligand binding assay relative to LvIA IC50; details: time 185.0 min
# [2] = Displacement of [125I]-alpha-bungarotoxin from Aplysia californica C-terminal His6-tagged N-terminal gp67 signal peptide-tagged acetylcholine receptor binding protein expressed in Hi5 insect cells preincubated for 3 hrs followed by [125I]-alpha-bungarotoxin measured after 5 mins by radioligand binding assay
# [3] = biological target: Neuronal acetylcholine receptor; alpha3/beta4 (Rattus norvegicus) (UniProt P04757+P12392); experiment: Antagonist activity at rat alpha3beta4 nAChR expressed in Xenopus laevis oocytes assessed as inhibition of Ach-induced response at -70 mV holding potential incubated for 5 mins by voltage-clamp assay relative to LvIA IC50; assay type: cell-based; details: Oocyte
# [4] = Antagonist activity at rat alpha3beta2 nAChR S168I mutant expressed in Xenopus laevis oocytes assessed as inhibition of Ach-induced response at -70 mV holding potential measured after 5 mins by voltage-clamp assay; assay type: cell-based; details: Oocyte
# Rattus norvegicus = organism: Rattus norvegicus; experiment: Selectivity index, ratio of IC50 for rat alpha3beta4 nAChR expressed in Xenopus laevis oocytes to IC50 for rat alpha3beta2 nAChR expressed in Xenopus laevis oocytes; assay type: cell-based
# Oocyte [5] = experiment: Antagonist activity at rat alpha3beta2 nAChR S168I mutant expressed in Xenopus laevis oocytes assessed as inhibition of Ach-induced response by measuring recovery of ACh-induced response time at 10 nM with -70 mV holding potential measured after 5 mins voltage-clamp assay; assay type: cell-based
# [6] = biological target: T1, Neuronal acetylcholine receptor; alpha3/beta2 (Rattus norvegicus); experiment: Antagonist activity at rat alpha3beta2 nAChR expressed in Xenopus laevis oocytes assessed as inhibition of Ach-induced response at -70 mV holding potential incubated for 5 mins by voltage-clamp assay relative to LvIA IC50; assay type: cell-based; details: Oocyte
# [7] = biological target: Neuronal acetylcholine receptor; alpha3/beta2 (Rattus norvegicus, UniProt P04757+P12390); experiment: Antagonist activity at rat alpha3beta2 nAChR expressed in Xenopus laevis oocytes assessed as inhibition of Ach-induced response at -70 mV holding potential incubated for 5 mins by voltage-clamp assay; assay type: cell-based, Oocyte
# Sequence of Neuronal acetylcholine receptor; alpha3/beta2 (P04757 whole entry): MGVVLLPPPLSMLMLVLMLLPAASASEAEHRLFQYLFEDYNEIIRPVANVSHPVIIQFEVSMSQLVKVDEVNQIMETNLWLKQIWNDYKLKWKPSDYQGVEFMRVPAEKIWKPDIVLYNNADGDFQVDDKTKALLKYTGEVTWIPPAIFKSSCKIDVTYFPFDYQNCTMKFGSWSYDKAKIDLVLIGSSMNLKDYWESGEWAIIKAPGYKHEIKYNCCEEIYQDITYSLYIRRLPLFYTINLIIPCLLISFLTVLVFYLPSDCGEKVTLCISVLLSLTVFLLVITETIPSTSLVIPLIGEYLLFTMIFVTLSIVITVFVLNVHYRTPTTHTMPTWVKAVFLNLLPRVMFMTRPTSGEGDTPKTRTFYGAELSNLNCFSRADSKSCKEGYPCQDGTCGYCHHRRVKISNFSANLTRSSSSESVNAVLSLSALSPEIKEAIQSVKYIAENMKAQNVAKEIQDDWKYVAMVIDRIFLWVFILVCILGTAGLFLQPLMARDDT
# Sequence of Neuronal acetylcholine receptor; alpha3/beta2 (P12390 whole entry): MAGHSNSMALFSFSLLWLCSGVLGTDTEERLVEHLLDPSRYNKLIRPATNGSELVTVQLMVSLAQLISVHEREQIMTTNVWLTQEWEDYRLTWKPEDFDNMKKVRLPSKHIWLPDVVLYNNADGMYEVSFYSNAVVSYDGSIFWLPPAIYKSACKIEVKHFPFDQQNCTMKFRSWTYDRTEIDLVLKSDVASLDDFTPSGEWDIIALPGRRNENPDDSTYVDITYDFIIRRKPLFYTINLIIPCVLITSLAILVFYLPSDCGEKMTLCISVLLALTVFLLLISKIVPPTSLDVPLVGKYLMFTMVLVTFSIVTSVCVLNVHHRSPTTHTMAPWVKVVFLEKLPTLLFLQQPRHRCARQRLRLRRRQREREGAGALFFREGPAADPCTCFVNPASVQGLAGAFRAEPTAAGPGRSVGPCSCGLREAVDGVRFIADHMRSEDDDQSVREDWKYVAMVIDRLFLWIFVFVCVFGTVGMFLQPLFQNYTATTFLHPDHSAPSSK
# [8] = biological target: Neuronal acetylcholine receptor; alpha3/beta4 (Rattus norvegicus, UniProt P04757+P12392); experiment: Antagonist activity at rat alpha3beta4 nAChR expressed in Xenopus laevis oocytes assessed as inhibition of Ach-induced response at -70 mV holding potential incubated for 5 mins by voltage-clamp assay; assay type: cell-based, Oocyte
# Sequence of Neuronal acetylcholine receptor; alpha3/beta4 (P04757 whole entry): as the sequence (P04757 whole entry) above
# Sequence of Neuronal acetylcholine receptor; alpha3/beta4 (P12392 whole entry): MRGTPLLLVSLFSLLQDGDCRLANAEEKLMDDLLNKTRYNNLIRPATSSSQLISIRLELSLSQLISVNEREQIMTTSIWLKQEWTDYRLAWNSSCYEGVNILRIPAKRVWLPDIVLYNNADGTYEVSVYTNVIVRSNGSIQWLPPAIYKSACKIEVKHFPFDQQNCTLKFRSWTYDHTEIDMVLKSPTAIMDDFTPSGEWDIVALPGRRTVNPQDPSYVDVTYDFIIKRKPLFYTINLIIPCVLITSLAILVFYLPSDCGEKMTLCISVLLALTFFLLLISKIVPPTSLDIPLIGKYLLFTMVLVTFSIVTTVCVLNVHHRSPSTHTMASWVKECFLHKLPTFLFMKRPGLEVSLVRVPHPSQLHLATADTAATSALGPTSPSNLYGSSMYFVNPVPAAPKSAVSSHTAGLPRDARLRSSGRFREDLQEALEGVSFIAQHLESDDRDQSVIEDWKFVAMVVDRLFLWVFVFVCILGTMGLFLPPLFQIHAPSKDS
# [9] = Antagonist activity at rat alpha3beta2 nAChR S108T mutant expressed in Xenopus laevis oocytes assessed as inhibition of Ach-induced response at -70 mV holding potential measured after 5 mins by voltage-clamp assay; assay type: cell-based; details: Oocyte
# [10] = Antagonist activity at rat alpha3beta2 nAChR D165P mutant expressed in Xenopus laevis oocytes assessed as inhibition of Ach-induced response at -70 mV holding potential measured after 5 mins by voltage-clamp assay; assay type: cell-based; details: Oocyte
# Oocyte [11] = experiment: Antagonist activity at rat alpha3beta2 nAChR S108T mutant expressed in Xenopus laevis oocytes assessed as inhibition of Ach-induced response at 1 uM at -70 mV holding potential measured after 5 mins by voltage-clamp assay relative to control; assay type: cell-based
# [12] = biological target: T1, Neuronal acetylcholine receptor; alpha3/beta2 (Rattus norvegicus); experiment: Antagonist activity at rat wild-type alpha3beta2 nAChR expressed in Xenopus laevis oocytes assessed as inhibition of Ach-induced response at 10 nM at -70 mV holding potential measured after 5 mins by voltage-clamp assay relative to control; assay type: cell-based; details: Oocyte
# Oocyte [13] = experiment: Antagonist activity at rat alpha3beta2 nAChR F106V mutant expressed in Xenopus laevis oocytes assessed as inhibition of Ach-induced response at 1 uM at -70 mV holding potential measured after 5 mins by voltage-clamp assay relative to control; assay type: cell-based; details: filed as antagonist
# [14] = Antagonist activity at rat alpha3beta2 nAChR L169M mutant expressed in Xenopus laevis oocytes assessed as inhibition of Ach-induced response at -70 mV holding potential measured after 5 mins by voltage-clamp assay; assay type: cell-based; details: Oocyte
# [15] = biological target: T1, Neuronal acetylcholine receptor; alpha3/beta2 (Rattus norvegicus); experiment: Antagonist activity at wild type rat alpha3beta2 nAChR expressed in Xenopus laevis oocytes assessed as inhibition of Ach-induced response at 1 uM at -70 mV holding potential measured after 5 mins by voltage-clamp assay relative to control; assay type: cell-based; details: Oocyte, filed as antagonist
# [16] = Antagonist activity at rat alpha3beta2 nAChR D115N mutant expressed in Xenopus laevis oocytes assessed as inhibition of Ach-induced response at -70 mV holding potential measured after 5 mins by voltage-clamp assay; assay type: cell-based; details: Oocyte
# Oocyte [17] = experiment: Antagonist activity at rat alpha3beta2 nAChR S113R mutant expressed in Xenopus laevis oocytes assessed as inhibition of Ach-induced response at 10 nM at -70 mV holding potential measured after 5 mins by voltage-clamp assay relative to control; assay type: cell-based; details: filed as antagonist
# [18] = Antagonist activity at rat alpha3beta2 nAChR V166T mutant expressed in Xenopus laevis oocytes assessed as inhibition of Ach-induced response at -70 mV holding potential measured after 5 mins by voltage-clamp assay; assay type: cell-based; details: Oocyte
# [19] = Antagonist activity at rat alpha3beta2 nAChR Y114S mutant expressed in Xenopus laevis oocytes assessed as inhibition of Ach-induced response at -70 mV holding potential measured after 5 mins by voltage-clamp assay; assay type: cell-based; details: Oocyte
# [20] = Antagonist activity at rat alpha3beta2 nAChR A110V mutant expressed in Xenopus laevis oocytes assessed as inhibition of Ach-induced response at -70 mV holding potential measured after 5 mins by voltage-clamp assay; assay type: cell-based; details: Oocyte
# [21] = Antagonist activity at rat alpha3beta2 nAChR S113R mutant expressed in Xenopus laevis oocytes assessed as inhibition of Ach-induced response at -70 mV holding potential measured after 5 mins by voltage-clamp assay; assay type: cell-based; details: Oocyte
# Oocyte [22] = experiment: Antagonist activity at rat alpha3beta2 nAChR S168I mutant expressed in Xenopus laevis oocytes assessed as inhibition of Ach-induced response at 10 nM at -70 mV holding potential measured after 5 mins by voltage-clamp assay relative to control; assay type: cell-based; details: filed as antagonist
# [23] = Antagonist activity at rat alpha3beta2 nAChR F106V mutant expressed in Xenopus laevis oocytes assessed as inhibition of Ach-induced response at -70 mV holding potential measured after 5 mins by voltage-clamp assay; assay type: cell-based; details: Oocyte
compound,measurement,setting,value
"CC[C@H](C)[C@@H]1NC(=O)[C@H](CCC(=O)O)NC(=O)[C@@H]2CCCN2C(=O)[C@H](Cc2cnc[nH]2)NC(=O)[C@H](CC(=O)O)NC(=O)[C@H](C(C)C)NC(=O)[C@H](C)NC(=O)[C@@H]2CSSC[C@H](NC(=O)CN)C(=O)N[C@@H](CSSC[C@@H](C(N)=O)NC1=O)C(=O)N[C@@H](CO)C(=O)N[C@@H](Cc1cnc[nH]1)C(=O)N1CCC[C@H]1C(=O)N[C@@H](C)C(=O)N2 (H-GCCSHPACAVDHPEIC-NH2; disulfide 2-8, 3-16)",TIME,[1],0.0167 h
same,Ratio IC50,Hi-5,-0.48
same,IC50,[2],760 nM
same,Ratio IC50,[3],14.7
same,IC50,[4],0.66 nM
same,Ratio IC50,Rattus norvegicus,2030
same,TIME,Oocyte [5],> 0.333 h
same,Ratio IC50,[6],0.13
same,IC50,[7],2.1 nM
same,IC50,[8],4270 nM
CC[C@H](C)[C@@H]1NC(=O)[C@H](CCC(=O)O)NC(=O)[C@@H]2CCCN2C(=O)[C@H](Cc2cnc[nH]2)NC(=O)[C@H](CC(=O)O)NC(=O)[C@H](C(C)C)NC(=O)[C@H](CC(N)=O)NC(=O)[C@@H]2CSSC[C@H](NC(=O)CN)C(=O)N[C@@H](CSSC[C@@H](C(N)=O)NC1=O)C(=O)N[C@@H](CO)C(=O)N[C@@H](Cc1cnc[nH]1)C(=O)N1CCC[C@H]1C(=O)N[C@@H](C)C(=O)N2,IC50,[9],1660 nM
same,IC50,[10],16.6 nM
same,inhibition,Oocyte [11],33.4%
same,IC50,[2],2300 nM
same,inhibition,[12],28.8%
same,inhibition,Oocyte [13],55%
same,IC50,[14],29.6 nM
same,inhibition,[15],94.4%
same,IC50,[16],23.6 nM
same,inhibition,Oocyte [17],91.9%
same,IC50,[18],31.8 nM
same,IC50,[4],0.7 nM
same,IC50,[19],31.3 nM
same,IC50,[20],54 nM
same,IC50,[21],4.1 nM
same,inhibition,Oocyte [22],94.6%
same,IC50,[23],401 nM
